These results are taken from patent US12662483B2, “Cocrystalline forms of FGFR3 inhibitors” (Eli Lilly and Company, priority 2022, dated 2026).

Data set [1] in a line: Solid state stability at 40° C./75% RH, caps off. It is filed as physicochemical. As to conditions: 40° C. and 75% relative humidity.
Data set [2] is described as follows: Dynamic vapor sorption (DVS). It is filed as physicochemical. As to conditions: 25° C. As for the experimental part:
Dynamic vapor sorption (DVS) analysis is obtained at 25° C. using a TA Instruments Q5000SA VTI flow moisture balance running TA Thermal Advantage, v5.2.6 and Universal Analysis 2000, v4.5a Software. The equilibrium criterion was <0.01% weight change in 5 minutes for a maximum of 60 minutes. Humidity verification calibration was performed with sodium bromide. The weight calibration was performed with manufacturer-supplied standards.
A prepared sample of the cocrystalline form of Formula I is characterized by dynamic vapor sorption as having a range of water content from about 1% at 0% RH to about 3.2% at 90% RH.

A short description of data set [3]: Solubility in aqueous and biorelevant media (HPLC of supernatant). As to conditions: for solubility at 24 h: thermodynamic from solid.
Excerpt: Samples of Isomer 2 IPMC SDD, Isomer 2 HPMC-AS-M SDD, Isomer 2 PVP-VA SDD, and the cocrystalline form of Formula I or Formula II were centrifuged.
In a further data set the target is T1, FGFR3 protein (Homo sapiens, UniProt P22607).
T1 construct: purchased Reaction Biology 1068
T1 sequence (P22607 23-806): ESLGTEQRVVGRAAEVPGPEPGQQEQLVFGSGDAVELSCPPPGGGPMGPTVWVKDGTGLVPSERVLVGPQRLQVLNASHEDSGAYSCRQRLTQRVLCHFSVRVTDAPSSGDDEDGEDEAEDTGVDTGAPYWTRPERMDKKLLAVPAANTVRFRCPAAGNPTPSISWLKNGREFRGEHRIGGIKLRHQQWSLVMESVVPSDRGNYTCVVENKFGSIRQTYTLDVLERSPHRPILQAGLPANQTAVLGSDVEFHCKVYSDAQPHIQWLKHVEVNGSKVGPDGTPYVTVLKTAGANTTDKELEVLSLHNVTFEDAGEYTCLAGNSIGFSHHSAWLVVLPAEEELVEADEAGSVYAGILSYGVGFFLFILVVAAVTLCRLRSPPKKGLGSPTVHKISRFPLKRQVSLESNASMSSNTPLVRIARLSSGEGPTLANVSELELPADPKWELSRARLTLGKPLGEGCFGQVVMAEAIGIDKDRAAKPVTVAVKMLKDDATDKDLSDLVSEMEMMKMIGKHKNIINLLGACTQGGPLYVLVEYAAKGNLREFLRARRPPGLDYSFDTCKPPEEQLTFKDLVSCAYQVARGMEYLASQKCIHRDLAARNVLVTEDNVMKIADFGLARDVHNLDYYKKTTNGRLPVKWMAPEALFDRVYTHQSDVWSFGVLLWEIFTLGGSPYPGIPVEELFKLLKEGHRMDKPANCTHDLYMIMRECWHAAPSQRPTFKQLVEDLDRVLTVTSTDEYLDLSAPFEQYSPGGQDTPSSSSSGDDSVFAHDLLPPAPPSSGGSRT
The data set can be described thus: FGFR3 enzyme assay (KinEASE-TK HTRF). It is filed as biochemical. As to conditions: at Km ATP, 0.25 nM enzyme. On the procedure: Enzyme activity was monitored using the KinEASE™-TK Assay Kit (CisBio, Cat. No. 62TK0PEC) according to the manufacturer's instructions. All assays were performed at the respective KmATP for each kinase in KinEASE™ Kinase Buffer.
Titration of Isomers 1, 2, and A were performed in a half-log manner in 100% dimethyl sulfoxide (DMSO) starting at 1 uM. Prior to the initiation of the reaction by adenosine triphosphate (ATP), FGFR1 protein and Isomers 1, 2, and A were pre-incubated for 15 minutes at room temperature, and FGFR3 protein and Isomers 1, 2, and A were pre-incubated on ice for 15 minutes. Reactions proceeded for 30 min at 30° C. Plates were quenched by the addition of the Anti-TK cryptate antibody/Streptavidin-XL665 mixture.
Ratios were converted to a percent of control (POC) using a ratiometric emission factor. One hundred POC was determined using no test compound, and 0 POC was determined in the presence of 1 uM of an appropriate control inhibitor. A 4-parameter logistic curve was fit to the POC values as a function of the concentration of Isomers 1, 2, and A, and the IC50 value was the point where the best fit curve crossed 50 POC.
For orientation: In TR-FRET formats the signal depends on donor and acceptor labels being close together.

[4] abbreviates: fasted simulated intestinal fluid.

Converted amounts (≈) assume the structure as drawn. Where only a bound is given, the exact number is not on record here.

As for `Cc1c(-c2cc(O[C@H](CO)c3ccc(F)cn3)c3c(Cl)cnn3c2)nnn1C1CCN(C#N)CC1` (single isomer, unassigned; isomer 2) [cocrystalline form of Formula I, 4-[4-[3-Chloro-4-[1-(5-fluoro-2-pyridyl)-2-hydroxy-ethoxy]pyrazolo[1,5-a]pyridin-6-yl]-5-methyl-triazol-1-yl]piperidine-1-carbonitrile, Isomer 2, Hemi-Gallic Acid Cocrystalline Form, Hemihydrate], the “stability relative to SDD formulations of Isomer 2 (IPMC, HPMC-AS-M, PVP-VA)” value in data set [1] is given as “more stable”. Also, the “water content by dynamic vapor sorption” value in data set [2] (0% RH) is on record as “about 1%”. Besides, the “water content by dynamic vapor sorption” value in data set [2] (90% RH) was “about 3.2%”. Moreover, in data set [3] (setting [4]), the “solubility relative to Isomer 2 with IPMC SDD” value is given as “about two to about three times more soluble” and the “solubility relative to freebase form of Isomer 2” value is on record as “about four to about five times more soluble”.
On to `Cc1c(-c2cc(O[C@H](CO)c3ccccn3)c3c(Cl)cnn3c2)nnn1C1CCN(C#N)CC1` [Isomer A, 4-[4-[3-chloro-4-[2-hydroxy-1-(2-pyridyl)ethoxy]pyrazolo[1,5-a]pyridin-6-yl]-5-methyl-triazol-1-yl]piperidine-1-carbonitrile, Isomer 1], for which the IC50 (usually the concentration that gives 50% inhibition) against FGFR3 protein was below 50 nM.
`Cc1c(-c2cc(O[C@H](CO)c3ccc(F)cn3)c3c(Cl)cnn3c2)nnn1C1CCN(C#N)CC1` [Isomer 2, 4-[4-[3-chloro-4-[1-(5-fluoro-2-pyridyl)-2-hydroxy-ethoxy]pyrazolo[1,5-a]pyridin-6-yl]-5-methyl-triazol-1-yl]piperidine-1-carbonitrile, Isomer 2]: the solubility – broadly, the dissolved amount per volume that the medium holds – at 24 h is 7 µg/mL (≈ 14.1 µM) in data set [3] (0.01N aqueous HCl, simulated gastric fluid); 12 µg/mL (≈ 24.1 µM) in data set [3] (0.1N aqueous HCl, simulated gastric fluid); 6 µg/mL (≈ 12.1 µM) in data set [3] (acetate buffer USP, pH 4.5, aqueous buffer); 6 µg/mL (≈ 12.1 µM) in data set [3] (phosphate buffer USP, pH 6, aqueous buffer); 5 µg/mL (≈ 10.1 µM) in data set [3] (phosphate buffer USP, pH 7.5, aqueous buffer); 47 µg/mL (≈ 94.6 µM) in data set [3] (simulated gastric fluid). Further, the solubility at 24 h in data set [3] (simulated intestinal fluid (fasted), fassif) is 10 µg/mL (≈ 20.1 µM); in data set [3] (simulated intestinal fluid (fed), fessif) it was 38 µg/mL (≈ 76.5 µM); in data set [3] (water), 6 µg/mL (≈ 12.1 µM).
